In patent publication US10676438B2, “KCNQ2-5 channel activator” (Ono Pharmaceutical Co., Ltd., priority 2014, dated 2020):
Values after ≈ are worked out from the molar mass of the structure shown.

Tests used:
[1] = Solubility test (DMSO precipitation method, Pharmacopoeia of Japan elution test second solution); assay type: physicochemical; conditions: aqueous buffer, kinetic from dmso stock; Pharmacopoeia of Japan elution test second solution pH=6.8, room temperature, five hours; quantitation range 5 to 100 μM
Experimental: A calibration curve solution was prepared by diluting a test substance (10 mM DMSO solution) with acetonitrile and adding acetonitrile including an internal standard substance (candesartan) so as to be 0.1, 0.4, and 2 μM.
Sample solution was prepared as follows: 5 μL of the compound of the present invention (10 mM DMSO solution) was added to 495 μL of the Pharmacopoeia of Japan elution test second solution (pH=6.8), and the resulting mixture was stirred at room temperature for five hours. Then, the solution was placed into a solubility filter plate and subjected to suction filtration. The filtrate (20 μL) was diluted with acetonitrile, followed by adding acetonitrile including an internal standard substance ([…]).
The calibration curve and sample solutions in the amount of 5 μL were infused into LC-MS/MS (Discovery Max manufactured by Thermo Scientific) and subjected to quantitation (quantitation range: 5 to 100 μM).

[2] = Evaluation of stability in human liver microsome; assay type: in vitro ADME; conditions: human, 15 min, 5 μmol/L, pH 7.4
Experimental: A test compound (10 mmol/L DMSO solution, 5 μL) was diluted with 50% acetonitrile aqueous solution (195 μL) to prepare 0.25 mmol/L solution.
To a reactor vessel which had been warmed to 37° C. in advance, 0.5 mg/mL of human liver microsome (Xenotech) and 245 μL of 0.1 M phosphate buffer solution (pH 7.4) including NADPH-Co-factor (BD Biosciences) were added, followed by preincubation for five minutes. Then, the above-mentioned test compound solution (5 μL) was added so as to start reaction (final concentration: 5 μmol/L). Immediately after the start, 20 μL was harvested and added to 180 μL of acetonitrile including an internal standard substance (warfarin) to stop the reaction. This solution (20 μL) was stirred with 180 μL of 50% acetonitrile aqueous solution on a plate equipped with a deproteinization filter. Then, the resulting mixture solution was subjected to suction filtration. The filtrate was adopted as a standard sample.
The above-mentioned reaction solution was incubated at 37° C. for 15 minutes, and 20 μL of the solution was added to 180 μL of cooled acetonitrile (including warfarin that is an internal standard substance) to stop the reaction. This solution (20 μL) was stirred with 180 μL of 50% acetonitrile aqueous solution on a plate equipped with a deproteinization filter, and then the resulting mixture solution was subjected to suction filtration. The filtrate was adopted as a reaction sample.
Residual rate (%) was obtained as follows: 1 μL of the sample solution was infused into LC-MS/MS (Discovery Max manufactured by Thermo Scientific), and a quotient obtained by dividing a peak area ratio of the reaction sample (peak area of test compound/peak area of internal standard substance) was divided by the peak area ratio of the standard sample was multiplied by 100.

Human KCNQ2/3 channel = Human KCNQ2/3 channel (Homo sapiens (Human), UniProt O43525+O43526); assay: Opening action with respect to KCNQ2/3 channel by depolarization stimulation (thallium influx, FLIPR); assay type: cell-based; conditions: concentration giving 50% of maximum reaction of retigabine (10 μM); human KCNQ2/3 expression CHO-DHFR- cells; 5 mM potassium and 0.5 mM thallium; read-out: KCNQ2/3 ECrtg50
Experimental: Human KCNQ2/3 expression cells (CHO-DHFR-cells) were seeded in each well of 384 well plate (collagen-coated, black, clear bottom) at 0.5×10^4 cells/50 μL per well, and cultured in a MEM ALPHA medium (containing 10 vol % inactivated (56° C., 30 min) Fetal Bovine Serum and 100 IU/mL Penicillin—100 μg/mL Streptomycin—2 mM L-Glutamine) at 37° C. in 5% CO2 for 18 to 24 hours. The medium in the plate was removed. Then, incubation (room temperature, 60 minutes, light-shielded) was carried out in a loading buffer (prepared by the method described in the manual of FluxOR Thallium Detection Kit (Invitrogen, F10016, F10017)). KCNQ2/3 channel opening action (thallium influx into cells) by the depolarization stimulation (5 mM potassium and 0.5 mM thallium) was measured by FLIPR TETRA (Molecular Devices). The compound of the present invention had been treated five minutes before the depolarization stimulation, and the reaction induced by the depolarization stimulation was measured over time for 180 seconds. The channel opening action of the compound of the present invention was evaluated based on the change amount of the fluorescence intensity from the time before the depolarization stimulation to the time after the passage of 180 seconds. Thus, the concentration (ECrtg50) satisfying 50% of the fluorescence intensity change of maximum reaction (at the time of 10 μM-treatment) of retigabine under this experiment condition was calculated.

| solubility at 5 h [1] [µM] | Residual rate [2] [%] | EC50 (Human KCNQ2/3 channel) [nM] | SMILES |
| --- | --- | --- | --- |
| 89 (≈ 44.1 µg/mL) | – | 400 | CC(O)(c1cc(Cl)c(NC(=O)NCc2ncc(C(F)(F)F)cn2)c(Cl)c1F)C(F)(F)F (centres unmarked) [Example 43 (1), 1-[2,6-dichloro-3-fluoro-4-(1,1,1-trifluoro-2-hydroxy-2-propanyl)phenyl]-3-{[5-(trifluoromethyl)-2-pyrimidinyl]methyl}urea] |
| 41 (≈ 17.4 µg/mL) | – | 30 | CC(O)(c1cc(Cl)c(NC(=O)CCc2ccc(F)cc2)c(Cl)c1)C(F)(F)F (centres unmarked) [Example 50 (2), N-[2,6-dichloro-4-(1,1,1-trifluoro-2-hydroxy-2-propanyl)phenyl]-3-(4-fluorophenyl)propanamide] |
| – | 98 | 1700 | Cc1cc(C(O)C(F)(F)F)ccc1NC(=O)NCc1ccc(C(F)(F)F)cn1 (centres unmarked) [Example 60, 1-[2-methyl-4-(2,2,2-trifluoro-1-hydroxyethyl)phenyl]-3-{[5-(trifluoromethyl)-2-pyridinyl]methyl}urea] |
| 71 (≈ 31.4 µg/mL) | – | 60 | Cc1cc(C(O)C(F)(F)F)cc(Cl)c1NC(=O)NCc1ccc(C(F)(F)F)cn1 (centres unmarked) [Example 62, 1-[2-chloro-6-methyl-4-(2,2,2-trifluoro-1-hydroxyethyl)phenyl]-3-{[5-(trifluoromethyl)-2-pyridinyl]methyl}urea] |
| – | 100 | 400 | CC(O)(c1cc(Cl)c(NC(=O)NCc2ccc(C(F)(F)F)cn2)c(Cl)c1)C(F)F (centres unmarked) [Example 75, 1-[2,6-dichloro-4-(1,1-difluoro-2-hydroxy-2-propanyl)phenyl]-3-{[5-(trifluoromethyl)-2-pyridinyl]methyl}urea] |

Continued, molecule first:

| SMILES | solubility at 5 h [1] [µM] | Residual rate [2] [%] | EC50 (Human KCNQ2/3 channel) [nM] |
| --- | --- | --- | --- |
| CC(O)(c1cc(Cl)c(NC(=O)NCc2cc3cc(F)ccc3[nH]2)c(Cl)c1)C(F)(F)F (centres unmarked) [Example 5 (13), 1-[2,6-dichloro-4-(1,1,1-trifluoro-2-hydroxy-2-propanyl)phenyl]-3-[(5-fluoro-1H-indole-2-yl)methyl]urea] | 81 (≈ 37.6 µg/mL) | 75 | 600 |
| CC(O)(c1cc(Cl)c(NC(=O)NC[C@@H]2CCCO2)c(Cl)c1)C(F)(F)F (stereo partly drawn) [Example 5 (15), 1-[2,6-dichloro-4-(1,1,1-trifluoro-2-hydroxy-2-propanyl)phenyl]-3-[(2S)-tetrahydro-2-furanylmethyl]urea] | 90 (≈ 36.1 µg/mL) | 97 | 2300 |
| CC(O)(c1cc(Cl)c(NC(=O)NCCC(F)(F)F)c(Cl)c1)C(F)(F)F (centres unmarked) [Example 5 (19), 1-[2,6-dichloro-4-(1,1,1-trifluoro-2-hydroxy-2-propanyl)phenyl]-3-(3,3,3-trifluoropropyl)urea] | 76 (≈ 31.4 µg/mL) | 100 | 100 |
| C[C@@H](NC(=O)Nc1c(Cl)cc(C(C)(O)C(F)(F)F)cc1Cl)C1CC1 (stereo partly drawn) [Example 5 (20), 1-[(1R)-1-cyclopropylethyl]-3-[2,6-dichloro-4-(1,1,1-trifluoro-2-hydroxy-2-propanyl)phenyl]urea] | 100 (≈ 38.5 µg/mL) | 91 | 500 |
| C[C@@](O)(c1cc(Cl)c(NC(=O)NCc2ccc(C#N)cc2)c(Cl)c1)C(F)(F)F [Example 22 (15), 1-(4-cyanobenzyl)-3-{2,6-dichloro-4-[(2R)-1,1,1-trifluoro-2-hydroxy-2-propanyl]phenyl}urea] | – | 93 | 200 |
| C[C@@](O)(c1cc(Cl)c(NC(=O)NCc2ccc(Oc3ccc(F)cc3)cc2)c(Cl)c1)C(F)(F)F [Example 22 (16), 1-{2,6-dichloro-4-[(2R)-1,1,1-trifluoro-2-hydroxy-2-propanyl]phenyl}-3-[4-(4-fluorophenoxyl)benzyl]urea] | – | 94 | 4 |
| C[C@](O)(c1cc(Cl)c(NC(=O)NCc2ccc(OCC(F)(F)F)nc2)c(Cl)c1)C(F)(F)F [Example 25 (6), 1-{2,6-dichloro-4-[(2S)-1,1,1-trifluoro-2-hydroxy-2-propanyl]phenyl}-3-{[6-(2,2,2-trifluoroethoxy)-3-pyridinyl]methyl}urea] | 40 (≈ 20.2 µg/mL) | 73 | 60 |
